Assay results: PubChem BioAssay (NCI)
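Cultured in 96-well plates, cells were exposed to test compound for 48 hours across five concentrations. TGI: total growth inhibition.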

What was measured:
Assay in all cases: NCI tumour cell line growth inhibition, 48 h
MCF7 breast = system: MCF7 breast
LOX IMVI melanoma = system: LOX IMVI melanoma
HCT-116 colon = system: HCT-116 colon
A498 renal = system: A498 renal
NCI-H460 lung = system: NCI-H460 lung
PC-3 prostate = system: PC-3 prostate
MOLT-4 leukemia = system: MOLT-4 leukemia
TK-10 renal = system: TK-10 renal
HS 578T breast = system: HS 578T breast
EKVX NSCLC = system: EKVX NSCLC
OVCAR-3 ovarian = system: OVCAR-3 ovarian
OVCAR-8 ovarian = system: OVCAR-8 ovarian
SK-MEL-2 melanoma = system: SK-MEL-2 melanoma
T-47D breast = system: T-47D breast
COLO 205 colon = system: COLO 205 colon
K-562 leukemia = system: K-562 leukemia
SNB-19 CNS = system: SNB-19 CNS
MALME-3M melanoma = system: MALME-3M melanoma
HOP-92 NSCLC = system: HOP-92 NSCLC
BT-549 breast = system: BT-549 breast
A549 NSCLC = system: A549 NSCLC
SF-295 CNS = system: SF-295 CNS
OVCAR-5 ovarian = system: OVCAR-5 ovarian
MDA-N = system: MDA-N
NCI/ADR-RES ovarian = system: NCI/ADR-RES ovarian
SNB-75 CNS = system: SNB-75 CNS
SF-539 CNS = system: SF-539 CNS
SK-MEL-5 melanoma = system: SK-MEL-5 melanoma
HCT-15 colon = system: HCT-15 colon
UACC-257 melanoma = system: UACC-257 melanoma
SF-268 CNS = system: SF-268 CNS
M14 melanoma = system: M14 melanoma
IGROV1 ovarian = system: IGROV1 ovarian
KM12 colon = system: KM12 colon
NCI-H226 lung = system: NCI-H226 lung
UO-31 renal = system: UO-31 renal
SN12C renal = system: SN12C renal
HL-60(TB) leukemia = system: HL-60(TB) leukemia
CCRF-CEM leukemia = system: CCRF-CEM leukemia
MDA-MB-435 = system: MDA-MB-435
CAKI-1 renal = system: CAKI-1 renal
U251 CNS = system: U251 CNS
HT29 colon = system: HT29 colon
UACC-62 melanoma = system: UACC-62 melanoma
ACHN renal = system: ACHN renal
786-0 renal = system: 786-0 renal
SK-OV-3 ovarian = system: SK-OV-3 ovarian
NCI-H23 lung = system: NCI-H23 lung
DU-145 prostate = system: DU-145 prostate
MDA-MB-231 breast = system: MDA-MB-231 breast
HCC-2998 colon = system: HCC-2998 colon
RXF 393 renal = system: RXF 393 renal
SK-MEL-28 melanoma = system: SK-MEL-28 melanoma
NCI-H522 lung = system: NCI-H522 lung
SW-620 colon = system: SW-620 colon
SR leukemia = system: SR leukemia
RPMI-8226 leukemia = system: RPMI-8226 leukemia
OVCAR-4 ovarian = system: OVCAR-4 ovarian
HOP-62 NSCLC = system: HOP-62 NSCLC

CC1C2(C)OC(=N)C(C#N)(C(c3ccccc3)O2)C1(C#N)C#N (stereo not drawn)
TGI (MCF7 breast): 49.3 µM | TGI (LOX IMVI melanoma): 36.9 µM | TGI (HCT-116 colon): 49.8 µM | TGI (A498 renal): > 100 µM | TGI (NCI-H460 lung): 25.1 µM | TGI (PC-3 prostate): 88.7 µM | TGI (MOLT-4 leukemia): > 100 µM | TGI (TK-10 renal): > 100 µM | TGI (HS 578T breast): 78.6 µM | TGI (EKVX NSCLC): 56.6 µM | TGI (OVCAR-3 ovarian): 29.1 µM | TGI (OVCAR-8 ovarian): > 100 µM | TGI (SK-MEL-2 melanoma): 42.7 µM | TGI (T-47D breast): 55.3 µM | TGI (COLO 205 colon): 30.4 µM | TGI (K-562 leukemia): > 100 µM | TGI (SNB-19 CNS): > 100 µM | TGI (MALME-3M melanoma): 90.3 µM | TGI (HOP-92 NSCLC): 29.7 µM | TGI (BT-549 breast): > 100 µM | TGI (A549 NSCLC): > 100 µM | TGI (SF-295 CNS): > 100 µM | TGI (OVCAR-5 ovarian): 69.5 µM | TGI (MDA-N): 44.4 µM | TGI (NCI/ADR-RES ovarian): > 100 µM | TGI (SNB-75 CNS): > 100 µM | TGI (SF-539 CNS): 40.3 µM | TGI (SK-MEL-5 melanoma): 30.3 µM | TGI (HCT-15 colon): 22.9 µM | TGI (UACC-257 melanoma): 68.7 µM | TGI (SF-268 CNS): 76.1 µM | TGI (M14 melanoma): 28 µM | TGI (IGROV1 ovarian): > 100 µM | TGI (KM12 colon): > 100 µM | TGI (NCI-H226 lung): > 100 µM | TGI (UO-31 renal): > 100 µM | TGI (SN12C renal): 32 µM | TGI (HL-60(TB) leukemia): 40.1 µM | TGI (CCRF-CEM leukemia): 67.6 µM | TGI (MDA-MB-435): > 100 µM | TGI (CAKI-1 renal): 26.6 µM | TGI (U251 CNS): 46.6 µM | TGI (HT29 colon): 45.8 µM | TGI (UACC-62 melanoma): 56.4 µM | TGI (ACHN renal): > 100 µM | TGI (786-0 renal): 51.1 µM | TGI (SK-OV-3 ovarian): > 100 µM | TGI (NCI-H23 lung): 78.2 µM | TGI (DU-145 prostate): > 100 µM | TGI (MDA-MB-231 breast): 35.4 µM | TGI (HCC-2998 colon): 22.7 µM | TGI (RXF 393 renal): 87.5 µM

O=C1/C(=C/c2ccccc2O)N=C(c2ccccc2)N1C1Nc2cc3c(cc2S1)NC(N1C(=O)/C(=C/c2ccccc2O)N=C1c1ccccc1)S3 (stereo not drawn)
TGI (MCF7 breast): > 100 µM | TGI (LOX IMVI melanoma): > 100 µM | TGI (HCT-116 colon): > 100 µM | TGI (A498 renal): > 100 µM | TGI (NCI-H460 lung): > 100 µM | TGI (PC-3 prostate): > 100 µM | TGI (SK-MEL-28 melanoma): > 100 µM | TGI (MOLT-4 leukemia): > 100 µM | TGI (TK-10 renal): > 100 µM | TGI (NCI-H522 lung): > 100 µM | TGI (HS 578T breast): > 100 µM | TGI (EKVX NSCLC): > 100 µM | TGI (OVCAR-3 ovarian): > 100 µM | TGI (OVCAR-8 ovarian): > 100 µM | TGI (SK-MEL-2 melanoma): > 100 µM | TGI (T-47D breast): > 100 µM | TGI (K-562 leukemia): > 100 µM | TGI (SW-620 colon): > 100 µM | TGI (HOP-92 NSCLC): 15 µM | TGI (SR leukemia): > 100 µM | TGI (SF-295 CNS): > 100 µM | TGI (OVCAR-5 ovarian): > 100 µM | TGI (MDA-N): > 100 µM | TGI (NCI/ADR-RES ovarian): > 100 µM | TGI (SF-539 CNS): > 100 µM | TGI (SK-MEL-5 melanoma): > 100 µM | TGI (HCT-15 colon): > 100 µM | TGI (UACC-257 melanoma): > 100 µM | TGI (RPMI-8226 leukemia): > 100 µM | TGI (SF-268 CNS): 59.6 µM | TGI (M14 melanoma): > 100 µM | TGI (IGROV1 ovarian): > 100 µM | TGI (KM12 colon): > 100 µM | TGI (NCI-H226 lung): > 100 µM | TGI (UO-31 renal): > 100 µM | TGI (HL-60(TB) leukemia): > 100 µM | TGI (CCRF-CEM leukemia): > 100 µM | TGI (MDA-MB-435): > 100 µM | TGI (OVCAR-4 ovarian): > 100 µM | TGI (CAKI-1 renal): > 100 µM | TGI (U251 CNS): > 100 µM | TGI (HT29 colon): > 100 µM | TGI (HOP-62 NSCLC): > 100 µM | TGI (ACHN renal): > 100 µM | TGI (786-0 renal): > 100 µM | TGI (SK-OV-3 ovarian): > 100 µM | TGI (NCI-H23 lung): > 100 µM | TGI (DU-145 prostate): > 100 µM | TGI (MDA-MB-231 breast): > 100 µM | TGI (HCC-2998 colon): > 100 µM | TGI (RXF 393 renal): 70 µM
